How the values were obtained:
hPPARγ LBD = target: T1, hPPARγ LBD (Homo sapiens, UniProt P37231); test: ESI-mass spectrometry of ligand binding to PPARγ LBD
T1 construct: Human PPARγ (aa. 203 to 477 of PPARγ) was subcloned into the pET15b; His-tag (N); made in house
T1 sequence (P37231 203-477 isoform P37231-2): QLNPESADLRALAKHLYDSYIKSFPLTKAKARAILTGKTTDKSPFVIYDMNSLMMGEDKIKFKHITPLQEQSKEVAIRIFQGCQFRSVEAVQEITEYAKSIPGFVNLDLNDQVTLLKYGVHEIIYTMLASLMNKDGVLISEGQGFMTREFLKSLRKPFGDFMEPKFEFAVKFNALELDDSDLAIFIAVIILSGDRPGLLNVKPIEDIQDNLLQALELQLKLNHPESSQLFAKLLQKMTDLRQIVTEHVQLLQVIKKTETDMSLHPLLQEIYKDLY
Text: FIG. 5: Two molecules of F-L-Leu bind to a single PPARγ molecule. ESI-mass spectrometry analysis.
The p300Nt-GST, fusion protein was generated by cloning the N-terminal part of the p300 protein (a.a. 2 to 516) downstream of the glutathione-S-transferase (GST) protein in the pGex-T1 vector (Pharmacia, Orsay, France). The fusion proteins were then expressed in Escherichia coli and purified on a glutathione affinity matrix (Pharmacia). Human PPARγ (aa. 203 to 477 of PPARγ) was subcloned into the pET15b (Novagen, Madison, Wis.) expression vector. The his-tagPPARγ2DE203-477 proteins were produced as follow. The protein was purified using a metal chelate affinity column with an affinity column Co^2+ coupled agarose (High Trap chelatin, Pharmacia). The protein was eluted with 20 mM Tris-HCl, […], 130 mM imidazole and 1-2 propanediol 2.5% (pH 8.5). A second purification step was made by gel filtration (Superdex 200 16/60, Pharmacia). The protein was eluted with 20 mM Tris-HCl, 100 mM NaCl, 5 mM DTT and 1-2 propanediol 2,5% (pH 8.5). […]
Electrospray ionization (ESI) mass spectrometry of hPPARγ LBD (amino acid 203 t ? 477) was used to identify the specific binding of F-L-Leu with PPARγ (FIG. 5). […] The mass of the receptor wa ? determined after incubation by ESI-mass spectrometry.

3T3-L1 cells = test: Adipocyte differentiation of 3T3-L1 cells (Northern blot, Oil Red O); assay type: cell-based, murine
Description: Confluent 3T3-L1 cells were incubated with 2 μM insulin, 1 μM dexamethasone, and 0.25 mM isobuthyl methyl xanthine for two days. […] A: RNA was isolated from 3T3-L1 cells after different times of differentiation induction. Blots were hybridized with 36B4 (to control for RNA loading); LPL or aP2 cDNAs. B: Cells were stained with Oil Red O after 6 days. LPL: lipoprotein lipase.
3T3-L1 cells (ATCC, Rockville, Md.) were grown to confluence in medium ? (Dulbecco's modified Eagle's Medium with 10% fetal calf serum, 100 units/n ? penicillin, and 100 μg/ml streptomycin). Confluent cells were incubated in medium ? containing 2 μM insulin, 1 μM dexamethasone, and 0.25 mM isobuthyl meth ? xanthine for two days. Then, the cells were incubated in medium A in presence ? absence of PPARγ y agonist for 4 days, changing the medium every 2 day ? Adipogenesis was evaluated by analysis of the expression of adipocyte-specif ? markers and by staining of lipids with Oil Red O (Chawla and Lazar, 1994).
Adipogenesis was monitored by analysis of lipoprotein lipase (LPL) and aP2 mRNA levels as markers of adipocyte differentiation and by studying morphological changes associated with the differentiation process.

C57BL/6j mice = test: Intraperitoneal glucose tolerance test in C57BL/6j mice; assay type: in vivo; conditions: for maximum glucose levels in IPGTT: 7 days, control 440
Description: Mice were treated with 2 different doses of F-L-Leu (10 and 30 mg/kg/days) during 7 days and then IPGTT was performed.

PPARγ2 = target: T2, PPARγ2 (Homo sapiens, UniProt P37231); test: Transient transfection, PPARγ2 reporter (luciferase/β-galactosidase) in Hep G2 cells; assay type: cell-based; design: a construct containing the entire cDNA of the human PPARγ2 (hPPARγ2); expressed in transfected cells; host or cells: Hep G2
T2 sequence (P37231 1-505): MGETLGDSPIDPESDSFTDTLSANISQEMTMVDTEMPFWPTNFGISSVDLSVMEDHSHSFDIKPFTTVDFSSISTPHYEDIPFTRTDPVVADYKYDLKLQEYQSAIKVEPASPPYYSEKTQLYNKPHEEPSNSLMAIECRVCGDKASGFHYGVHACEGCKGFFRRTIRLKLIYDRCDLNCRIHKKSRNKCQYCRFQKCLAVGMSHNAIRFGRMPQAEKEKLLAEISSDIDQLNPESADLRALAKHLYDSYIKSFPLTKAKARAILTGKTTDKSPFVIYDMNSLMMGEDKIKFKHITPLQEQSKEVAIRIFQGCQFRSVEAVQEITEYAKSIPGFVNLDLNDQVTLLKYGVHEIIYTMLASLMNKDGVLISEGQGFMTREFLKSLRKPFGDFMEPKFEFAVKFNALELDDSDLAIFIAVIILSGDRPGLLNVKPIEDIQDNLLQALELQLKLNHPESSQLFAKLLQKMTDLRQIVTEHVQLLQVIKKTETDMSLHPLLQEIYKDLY
Description: Hep G2 cells were co-transfected with an expression vector for PPARγ2 (0.1 μg/well), pGL3-(Jwt)3TKLuc reporter construct (0.5 μg/well), and pCMV-βGal (0.5 μg/well), as a control of transfection efficiency (0.5 μg/well). The were then grown during 24 h in the presence or absence of indicated compound Activation is expressed as relative luciferase activity/β-galactosidase activity. Each point was performed in triplicate. This figure is representative of three independent experiments.
RK13 cells (A and D), CV1 cells (B) or Hep G2 cells (C) were co-transfected with an expression vector for PPARγ2 (0.1 μg/well), pGL3-(Jwt)3TKLuc reported construct (0.5 μg/well), and pCMV-βGal (0.5 μg/well), as a control of transfection efficiency (0.5 μg/well). They were then grown during 24 h in the presence or absence of indicated compound. Activation is expressed as relative luciferase activity/β ? galactosidase activity. Each point was performed in triplicate, and each figure i ? representative of four independent experiments.
The CV1, RK-13, and Hep G2 cell lines were obtained from ATCC (Rockville, Md.). Cells were maintained in Dulbecco's modified Eagle's minimal essential medium (DMEM) supplemented with 10% fetal calf serum (FCS), L-glutamine, and antibiotics. Transfections with chloramphenicol acetyltransferase (CAT) or luciferase (luc.) reporter constructs were carried out exactly as described previously (Schoonjans et al., 1996). The pGL3-(Jwt)3TKLuc and the pGL3-(Jwt)3TKCAT reporter constructs contain both three tandem repeats of the J site of the apolipoprotein A-II promoter cloned upstream of the herpes simplex virus thymidine kinase (TK) promoter and the luciferase or the CAT reporter genes respectively (Vu-Dac et al., 1995). The following expression vectors were used; pSG5-hPPARγ2, a construct containing the entire cDNA of the human PPARγ2 (hPPARγ2) (Fajas et al., 1997); pSG5-mPPARα (Isseman et al., 1993); and pCMV-βGal, as a control of transfection efficiency.

[1] = 3T3-L1, 10^−5 M, extent close to rosiglitazone 10^−7 M

CC(C)CC(NC(=O)OCC1c2ccccc2-c2ccccc21)C(=O)O [F-L-Leu, N-(9-fluroroenylmethyloxycarbonyl)-L-Leucine]
PPARγ species detected (hPPARγ LBD; 1 equivalent of ligand per equivalent of PPARγ: unliganded, 1:1 and 1:2 complexes): three populations of PPARγ | number of ligand molecules bound per PPARγ LBD (hPPARγ LBD; 8 equivalents of ligand per 1 equivalent of PPARγ, only complex detected): 2 | LPL mRNA levels (3T3-L1 cells; [1]): significantly stimulated | aP2 mRNA levels (3T3-L1 cells; [1]): significantly stimulated | neutral lipid accumulation (Oil Red O staining) (3T3-L1 cells; 3T3-L1, 6 days, F-L-Leu 10^−5 M, rosiglitazone 10^−7 M): capable of inducing neutral lipid accumulation | insulin sensitivity in normal animals (C57BL/6j mice; 30 mg/kg/day): significantly improve insulin sensitivity | clearance of intraperitoneally administered glucose vs vehicle (C57BL/6j mice; C57BL/6j, 10 mg/kg/day): comparable rate | maximum glucose levels in IPGTT (C57BL/6j mice; C57BL/6j, 10 mg/kg/day i.p.): 440 mg/dL | maximum glucose levels in IPGTT (C57BL/6j mice; C57BL/6j, 30 mg/kg/day i.p.): 320 mg/dL | area under the curve in IPGTT (C57BL/6j mice; C57BL/6j, 30 mg/kg/day, vs control or lower dose): significantly lower | optimal concentration for PPARγ activation compared with PG J2 (PPARγ2; HepG2): similar | optimal concentration relative to concentration of rosiglitazone or pioglitazone necessary to reach the same efficacy (PPARγ2; HepG2, fold higher, pioglitazone data not shown): 100 fold | PPARγ activation (relative luciferase activity/β-galactosidase activity) (PPARγ2; HepG2 cells, pSG5-hPPARγ2, 24 h, F-L-leu at 10^−5 M): Significant PPARγ activity | concentration required for optimal PPARγ activation (PPARγ2; human HepG2 cells): 10^−5 M | potency in transfection experiments relative to rosiglitazone (PPARγ2; summary statement, cell line not named): two orders of magnitude less potent
